Test results as given in patent US9403894B2, “Glucagon analogues” (Zealand Pharma A/S, priority 2010, dated 2016).
Residues, ends and D or L forms follow the SMILES beside them.

Legend:
db/db mice = experiment: 6 weeks s.c. administration in db/db mice: HbA1c and body weight; type: in vivo; conditions: versus vehicle
Protocol: The HbA1c determination is based on Turbidimetric INhibition ImmunoAssay (TINIA) in which HbA1c in the sample reacts with anti-HbA1c to form soluble antigen-antibody complexes. Additions of polyhaptens react with excess anti-HbA1c antibodies to form an insoluble antibody-polyhapten complex, which can be measured turbidimetrically. Liberated hemoglobin in the hemolyzed sample is converted to a derivative having a characteristic absorption spectrum, which is measured bichromatically during the preincubation phases. The final result is expressed as percent HbA1c of total hemoglobin (Cobas®Application note A1C-2).
db/db (BKS.Cg-m+/+ Lepr^db/J) male mice, 5-6 weeks old, were obtained from Charles River Laboratories, Germany, and acclimatized in their new environment with free access to normal chow and water. […] Throughout the study, body weights were recorded daily and used to administer the body weight-corrected doses of peptide. HbA1c levels were measured on blood samples before treatment, and then once weekly during the study. […]
Blood samples were analyzed for HbA1c using the Cobas c111 analyzer (Roche Diagnostics, Mannheim, Germany). Samples for HbA1c analysis were analyzed within 24 hours of sampling.
Throughout the study, body weights were recorded daily and used to administer the body weight-corrected doses of peptide. […]

Glucagon receptor = Glucagon receptor (Homo sapiens, UniProt P47871); conditions: at 12.5 μM and 125 nM
Chain of Glucagon receptor (P47871 26-477): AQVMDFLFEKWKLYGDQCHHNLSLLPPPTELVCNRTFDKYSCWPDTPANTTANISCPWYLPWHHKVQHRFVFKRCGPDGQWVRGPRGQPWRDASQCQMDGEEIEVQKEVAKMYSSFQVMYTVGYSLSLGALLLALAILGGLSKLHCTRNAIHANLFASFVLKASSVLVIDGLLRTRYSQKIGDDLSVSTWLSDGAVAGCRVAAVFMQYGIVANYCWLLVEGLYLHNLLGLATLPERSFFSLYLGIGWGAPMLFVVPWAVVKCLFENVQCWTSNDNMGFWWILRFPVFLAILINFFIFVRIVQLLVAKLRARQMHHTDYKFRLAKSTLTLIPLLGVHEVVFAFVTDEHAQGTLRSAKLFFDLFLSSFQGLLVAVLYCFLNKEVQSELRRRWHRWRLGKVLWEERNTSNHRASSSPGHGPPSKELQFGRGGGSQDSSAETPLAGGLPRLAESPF
Protocol: Unless specified otherwise, the sample compounds were diluted in 100% anhydrous DMSO including all dilutions. If the sample compound is provided in a different solvent all master stock dilutions are performed in the specified solvent. All control wells contained identical solvent final concentrations as the sample compound wells.
Reference agonists were handled as mentioned above serving as assay control. The reference agonists were handled as described above for Emax.

high fat diet fed mice = experiment: 3 weeks s.c. treatment, lipids in 30 weeks high fat diet fed mice; type: in vivo; conditions: 30 weeks high fat diet mice, 10 nmol/kg s.c. twice daily
Protocol: The assay is an enzymatic colorimetric method. In the presence of magnesium ions, dextran sulfate selectively forms water-soluble complexes with LDL, VLDLA and chylomicrons, which are resistant to PEG-modified enzymes. The HDL cholesterol is determined enzymatically by cholesterol esterase and cholesterol oxidase coupled with PEG to the amino groups. Cholesterol esters are broken down quantitatively to free cholesterol and fatty acids. HDL cholesterol is enzymatically oxidized to choles-4-en-3-one and H2O2, and the formed H2O2 is measured colorimetrically (Cobas®; Application note HDLC3).
The direct determination of LDL takes advantage of the selective micellary solubilization of LDL by a nonionic detergent and the interaction of a sugar compound and lipoproteins (VLDL and chylomicrons). The combination of a sugar compound with detergent enables the selective determination of LDL in plasma. The test principle is the same as that of cholesterol and HDL, but due to the sugar and detergent only LDL-cholesterol esters are broken down to free cholesterol and fatty acids. Free cholesterol is then oxidized and the formed H2O2 is measured colorimetrically (Application note LDL_C, Cobas®).
The effect was measured on LDL, HDL and triglycerides (CHO: Total Cholesterol; HDL: High Density Cholesterol; LDL: Low Density Cholesterol; TRIG: Triglycerides; HDULDL: Ratio between HDL and LDL).

in vivo = conditions: male, cynomolgus monkey
Protocol: Plasma samples were withdrawn at the following time points; predose, 5, 10, 30 min, 1, 2, 4, 8, 12, 24 and 36 h post i.v. dosing and predose, 10, 30 min, 1, 2, 4, 8, 12, 24, 36 and 48 h post s.c. dosing. The vehicle consisted of 25 mM phosphate buffered saline at pH 7.4 (25 mM sodium phosphate, 25 mM NaCl). Plasma samples were analyzed using protein precipitation followed by solid phase extraction and LC-MS/MS analysis. Pharmacokinetic parameters were calculated using non-compartmental analysis in WinNonLin version 4.1.

[1] = test system: diet induced obese C57BL/6J mice; experiment: 3 weeks s.c. treatment in diet induced obese C57BL/6J mice: body weight and OGTT; type: in vivo; conditions: s.c. twice daily
Protocol: C57Bl/6J male mice, 6 weeks old, were acclimatized in their new environment with free access to a high fat diet and water. 36 weeks old, the animals were randomized into groups with similar average fasting (6 hours) blood glucose (assessed from blood samples taken from the tip of the tail). The mice were treated twice daily s.c. for three weeks with compound 6 or vehicle. Body weight was recorded daily. After peptide treatment an oral glucose tolerance test (OGTT) were performed after subjecting the animals to a 6 hour fast. Animals were dosed with peptide or vehicle in the morning. Approximately four hours later an initial blood sample (fasting blood glucose level) was taken. Thereafter an oral dose of glucose was given and the animals were returned to their home cages (t=0). BG was measured at t=15 min, t=30 min, t=60 min, t=90 min and t=120 min. All animals were sacrificed immediately following blood sampling by CO2 anesthesia followed by cervical dislocation.

GLP-1 receptor = GLP-1 receptor (Homo sapiens, UniProt P43220); experiment: Class B GPCR counterscreen, calcium flux agonist format; type: cell-based; conditions: at 12.5 μM and 125 nM
Chain of GLP-1 receptor (P43220 24-463): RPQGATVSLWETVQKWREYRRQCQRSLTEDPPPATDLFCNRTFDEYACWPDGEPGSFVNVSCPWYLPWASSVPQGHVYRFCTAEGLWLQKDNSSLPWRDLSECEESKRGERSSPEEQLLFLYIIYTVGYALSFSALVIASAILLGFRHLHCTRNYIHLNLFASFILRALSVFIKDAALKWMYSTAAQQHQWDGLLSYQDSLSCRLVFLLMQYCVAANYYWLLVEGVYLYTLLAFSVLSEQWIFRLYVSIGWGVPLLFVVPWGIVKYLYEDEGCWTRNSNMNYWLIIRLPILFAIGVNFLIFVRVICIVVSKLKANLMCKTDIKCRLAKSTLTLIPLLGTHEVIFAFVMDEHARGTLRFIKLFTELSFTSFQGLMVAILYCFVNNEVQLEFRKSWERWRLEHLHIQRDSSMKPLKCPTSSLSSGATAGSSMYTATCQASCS
Description: (§1) The protocol design is as follows:

[2] = test system: high fat fed C57BL/6J mice; experiment: Body weight gain in high fat fed C57BL/6J mice, 10 days s.c. treatment; type: in vivo; conditions: both doses 0.5 and 5 nmol/kg s.c. twice daily
Protocol: C57BL/6J mice were acclimatized in their new environment for 4 weeks with free access to a high fat diet and water. […] Throughout the study, body weights were recorded daily and used to administer the body weight-corrected doses of peptide (FIG. 6). Mice were sacrificed by cervical dislocation.

GIP receptor = molecular target: T1, GIP receptor (Homo sapiens, UniProt P48546); experiment: Class B GPCR counterscreen, calcium flux antagonist format; type: cell-based; conditions: at 10 μM and 100 nM
T1 sequence (P48546 22-466): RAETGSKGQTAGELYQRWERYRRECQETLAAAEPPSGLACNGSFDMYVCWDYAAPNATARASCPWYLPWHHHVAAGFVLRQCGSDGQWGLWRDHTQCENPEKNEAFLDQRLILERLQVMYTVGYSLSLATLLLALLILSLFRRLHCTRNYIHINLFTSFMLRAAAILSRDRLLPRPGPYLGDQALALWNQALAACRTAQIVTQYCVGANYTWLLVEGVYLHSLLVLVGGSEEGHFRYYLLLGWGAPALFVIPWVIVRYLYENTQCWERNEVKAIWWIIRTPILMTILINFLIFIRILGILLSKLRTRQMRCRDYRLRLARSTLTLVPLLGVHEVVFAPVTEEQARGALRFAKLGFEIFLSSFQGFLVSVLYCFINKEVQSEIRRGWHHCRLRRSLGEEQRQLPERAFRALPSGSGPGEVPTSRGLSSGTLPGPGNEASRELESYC
Protocol: as §1
(§2) Using the EC80 values determined previously, stimulated all pre-incubated sample compound and reference antagonist (if applicable) wells with EC80 of reference agonist.
(§3) Read for 180 seconds using the FLIPR^TETRA (this addition added reference agonist to respective wells)—then fluorescence measurements were collected to calculate IC50-values.

CRF2 receptor = molecular target: T2, CRF2 receptor (Homo sapiens, UniProt Q13324); experiment: as above; type: cell-based; conditions: at 10 μM
T2 sequence (Q13324 1-411): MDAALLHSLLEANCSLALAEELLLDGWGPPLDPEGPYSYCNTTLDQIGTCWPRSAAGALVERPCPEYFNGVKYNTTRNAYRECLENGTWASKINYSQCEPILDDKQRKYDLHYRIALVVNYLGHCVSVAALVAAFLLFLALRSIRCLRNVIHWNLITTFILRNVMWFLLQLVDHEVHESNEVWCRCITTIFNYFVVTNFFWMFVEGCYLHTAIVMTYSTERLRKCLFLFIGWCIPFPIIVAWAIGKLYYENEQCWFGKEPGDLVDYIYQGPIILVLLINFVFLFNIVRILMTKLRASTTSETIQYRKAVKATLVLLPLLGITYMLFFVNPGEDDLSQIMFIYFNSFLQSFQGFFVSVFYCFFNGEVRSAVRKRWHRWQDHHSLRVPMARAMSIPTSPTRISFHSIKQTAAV
Protocol: as §1, §2, §3

Secretin receptor = Secretin receptor (Homo sapiens, UniProt P47872); experiment: as above; type: cell-based; conditions: at 10 μM
Chain of Secretin receptor (P47872 23-440, species assumed): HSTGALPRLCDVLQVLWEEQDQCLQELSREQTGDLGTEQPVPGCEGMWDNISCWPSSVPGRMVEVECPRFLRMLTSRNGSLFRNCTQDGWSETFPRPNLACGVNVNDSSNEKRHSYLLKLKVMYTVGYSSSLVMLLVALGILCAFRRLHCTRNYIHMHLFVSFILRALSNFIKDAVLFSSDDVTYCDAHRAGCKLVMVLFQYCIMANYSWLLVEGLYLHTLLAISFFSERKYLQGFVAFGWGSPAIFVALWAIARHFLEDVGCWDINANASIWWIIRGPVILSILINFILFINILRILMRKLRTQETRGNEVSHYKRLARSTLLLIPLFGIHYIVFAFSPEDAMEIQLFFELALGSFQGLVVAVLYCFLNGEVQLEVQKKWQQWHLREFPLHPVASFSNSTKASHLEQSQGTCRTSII
Protocol: as §1, §2, §3

[3] = diet induced obese C57BL/6J mice

Compound	effect on body weight gain (db/db mice; db/db mice, 5 nmol/kg s.c. twice daily, p<0.0001)	effect on increase in HbA1c over time (db/db mice; db/db mice, 1, 2.5 and 5 nmol/kg s.c. twice daily)	agonist activity, Glucagon receptor (Glucagon receptor)	effect on HDL (high fat diet fed mice; P<0.001)	effect on LDL (high fat diet fed mice; P<0.001)	effect on total cholesterol (high fat diet fed mice; P<0.001)	effect on triglycerides (high fat diet fed mice; P<0.05)	effect on ratio HDULDL (high fat diet fed mice; p<0.001)	bioavailability (in vivo) [%]	Tmax (in vivo; sc, 20 nmol/kg) [h]	decrease of body weight ([1]; diet induced obese C57BL/6J mice (30 weeks high fat diet), p<0.05) [%]	body weight level reached compared with non-treated controls on regular chow diet [1, 3]	effect on fasting blood glucose [1, 3]	effect on glucose tolerance (decrease in AUC during OGTT) ([1]; diet induced obese C57BL/6J mice, 6 hour fast)	agonist activity, GLP-1 receptor (GLP-1 receptor)	effect on body weight gain [2]	antagonist activity, GIP receptor (GIP receptor)	antagonist activity, CRF2 receptor (CRF2 receptor)	antagonist activity, Secretin receptor (Secretin receptor)
CCCCCCCCCCCCCCCC(=O)N[C@@H](CCC(=O)NCCCC[C@H](NC(=O)[C@H](CCC(=O)O)NC(=O)[C@H](CC(=O)O)NC(=O)[C@H](CC(C)C)NC(=O)[C@H](Cc1ccc(O)cc1)NC(=O)[C@H](CCCCN)NC(=O)[C@H](CO)NC(=O)[C@H](Cc1ccc(O)cc1)NC(=O)[C@H](CC(=O)O)NC(=O)[C@H](CO)NC(=O)[C@@H](NC(=O)[C@H](Cc1ccccc1)NC(=O)[C@@H](NC(=O)CNC(=O)[C@H](CCC(N)=O)NC(=O)[C@H](CO)NC(=O)[C@@H](N)Cc1c[nH]cn1)[C@@H](C)O)[C@@H](C)O)C(=O)N[C@@H](CCCNC(=N)N)C(=O)N[C@@H](C)C(=O)N[C@@H](CCCCN)C(=O)N[C@@H](CC(=O)O)C(=O)N[C@@H](Cc1ccccc1)C(=O)N[C@H](C(=O)N[C@@H](CCC(=O)O)C(=O)N[C@@H](Cc1c[nH]c2ccccc12)C(=O)N[C@@H](CC(C)C)C(=O)N[C@@H](CC(C)C)C(=O)N[C@@H](CO)C(=O)N[C@@H](C)C(N)=O)[C@@H](C)CC)C(=O)O [Compound 6]	significantly decreased body weight gain compared to vehicle	did not at any time-point reduce the increase in HbA1c	exhibited agonist activities	significantly decreased	significantly decreased	significantly decreased	significantly decreased	increased significantly	43	4 to 8	38.7	stabilized to the same body weight as obtained by non-treated control animals on a regular chow diet	significantly decreased fasting blood glucose	no significant effect on glucose tolerance	exhibited agonist activities	significantly decreased body weight gain	exhibited antagonist activity	exhibited antagonist activity	exhibited antagonist activity
CCCCCCCCCCCCCCCC(=O)N[C@@H](CCC(=O)NCCCC[C@H](NC(=O)[C@H](CCC(=O)O)NC(=O)[C@H](CC(=O)O)NC(=O)[C@H](CC(C)C)NC(=O)[C@H](Cc1ccc(O)cc1)NC(=O)[C@H](CCCCN)NC(=O)[C@H](CO)NC(=O)[C@H](Cc1ccc(O)cc1)NC(=O)[C@H](CC(=O)O)NC(=O)[C@H](CO)NC(=O)[C@@H](NC(=O)[C@H](Cc1ccccc1)NC(=O)[C@@H](NC(=O)CNC(=O)[C@H](CCC(N)=O)NC(=O)C(C)(C)NC(=O)[C@@H](N)Cc1c[nH]cn1)[C@@H](C)O)[C@@H](C)O)C(=O)N[C@@H](CCCNC(=N)N)C(=O)N[C@@H](C)C(=O)N[C@@H](CCCCN)C(=O)N[C@@H](CC(=O)O)C(=O)N[C@@H](Cc1ccccc1)C(=O)N[C@H](C(=O)N[C@@H](CCC(=O)O)C(=O)N[C@@H](Cc1c[nH]c2ccccc12)C(=O)N[C@@H](CC(C)C)C(=O)N[C@@H](CC(C)C)C(=O)N[C@@H](CO)C(=O)N[C@@H](C)C(N)=O)[C@@H](C)CC)C(=O)O [Compound 7] (HELM PEPTIDE1{H.[Aib].Q.G.T.F.T.S.D.Y.S.K.Y.L.D.E.K.R.A.K.D.F.I.E.W.L.L.S.A.[am]}|PEPTIDE2{[CCCCCCCCCCCCCCCC(=O)[*:2]].[gGlu]}$PEPTIDE1,PEPTIDE2,17:R3-2:R2$$$V2.0)	–	–	–	–	–	–	–	–	–	–	–	–	–	–	–	significantly decreased body weight gain	–	–	–
